A word on the IC50: it is the concentration that gives 50% inhibition. Read a high IC50 as a need for much substance.

The test can be described thus: Inhibition of Influenza A virus (A/California/04/2009 (H1N1-H274Y)) Neuraminidase using MUNANA as substrate preincubated for 5 to 15 mins followed by substrate addition and measured after 30 mins by fluorescence spectrophotometric method.

`CCC(CC)O[C@@H]1C=C(C(=O)O)C[C@H](N)[C@H]1NC(C)=O` [OSELTAMIVIR CARBOXYLATE] returned an IC50 of 4070 nM.

Molecule `CCC(CC)O[C@@H]1C=C(C(=O)O)C[C@H](NC(N)=O)[C@H]1NC(C)=O` displayed an IC50 of 667 nM.
